PubChem BioAssay (NCI)
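Interpolation was linear, between the two tested concentrations surrounding the appropriate level; five concentrations were tested over 48 hours in 96-well plates. Abbreviation: GI50, concentration required for 50% inhibition of growth. TGI denotes the concentration required for complete inhibition of growth.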

Key:
Assay in all cases: NCI-60 cell line screen, 48 h
[1] = system: UO-31 renal
[2] = system: ACHN renal
[3] = system: MDA-MB-435
[4] = system: CCRF-CEM leukemia
[5] = system: EKVX NSCLC
[6] = system: SR leukemia
[7] = system: DU-145 prostate
[8] = system: SNB-75 CNS

Compound	GI50 [1]	TGI [1]	GI50 [2]	TGI [2]	GI50 [3]	TGI [3]	GI50 [4]	TGI [4]	GI50 [5]	TGI [5]	GI50 [6]	TGI [6]	GI50 [7]	TGI [7]	GI50 [8]	TGI [8]
O=C(Nc1cccc(Cl)c1)c1ccc(NC2=C(Cl)C(=O)N(Cc3ccccc3)C2=O)cc1	> 26.3 µM	> 100 µM	17.6 µM	> 53.4 µM	9.43 µM	33.6 µM	0.436 µM	1.44 µM	> 46 µM	> 69.3 µM	1.39 µM	3.82 µM	8.37 µM	19.2 µM	–	–
COc1ccc(/C=C\c2cc(OC)c(OC)c(OC)c2)cc1OC(=O)c1cccc(Cn2cc(CCOC(=O)[C@H](N)Cc3cn(C)c4ccccc34)nn2)c1	0.192 µM	> 45.1 µM	< 0.01 µM	> 60.7 µM	–	–	< 0.01 µM	> 100 µM	0.0538 µM	> 100 µM	< 0.01 µM	2.66 µM	< 0.01 µM	> 100 µM	< 0.01 µM	0.0293 µM
CC1=C2C[C@H]3[C@@H](CC[C@@H]4CC(NS(C)(=O)=O)CC[C@@]43C)[C@@H]2CC[C@@]2(C1)O[C@@H]1C[C@H](C)CN[C@H]1[C@H]2C (some centres undefined)	10.7 µM	23.5 µM	3.85 µM	14.6 µM	8.1 µM	22.8 µM	7.71 µM	28.4 µM	–	–	3.38 µM	12 µM	14.4 µM	28 µM	3.07 µM	15.9 µM
CCC/C(=N/N=C(N)N)c1ccc(NC(=O)c2cc3cc(OC)ccc3[nH]2)cc1	17.9 µM	38 µM	13.1 µM	33.1 µM	3.81 µM	21.7 µM	–	–	–	–	–	–	3.57 µM	12 µM	2.94 µM	18 µM
COc1cc2cc(Oc3ccc(NC(=O)Nc4cccc(C(F)(F)F)c4)cc3)c(C)nc2cc1OC	1.98 µM	10.8 µM	1.64 µM	7.71 µM	1.63 µM	10.1 µM	–	–	1.48 µM	6.46 µM	1.17 µM	3.33 µM	2.78 µM	15.8 µM	1.17 µM	6.18 µM
O=c1ccn(C2OC(CO/N=C/c3ccc(O)c(O)c3O)C(O)C2O)c(=O)[nH]1 (centres undefined)	17.2 µM	31.6 µM	31.8 µM	> 100 µM	15.8 µM	31.3 µM	–	–	33.9 µM	> 100 µM	–	–	17.1 µM	33.2 µM	16.4 µM	32.2 µM
O=C1c2cc3c(cc2-c2c1c1ccc(Cl)cc1c(=O)n2CCCNCCO)OCO3	0.0608 µM	1.87 µM	0.0383 µM	1.44 µM	1.03 µM	2.49 µM	0.0347 µM	1 µM	1.63 µM	3.42 µM	–	–	0.059 µM	1.68 µM	–	–
Cc1cc(S(N)(=O)=O)c(S/C(CC(C)C)=N\Nc2ccc([N+](=O)[O-])cc2)cc1Cl	11.1 µM	23.6 µM	5.44 µM	17.4 µM	2.92 µM	9.42 µM	–	–	16.6 µM	31.3 µM	1.84 µM	6.26 µM	14.4 µM	28 µM	4.05 µM	18.7 µM
O=NNc1ccc(S(=O)(=O)c2ccccc2)cn1	–	> 100 µM	–	> 100 µM	–	–	–	> 100 µM	–	> 100 µM	–	> 100 µM	–	> 100 µM	–	> 100 µM
COC1CC2CCC(C)C(O)(O2)C(=O)C(=O)N2CCCCC2C(=O)OC(C(C)CC2CCC(O)C(OC)C2)CC(=O)C(C)C=C(C)C(O)C(OC)C(=O)C(C)CC(C)/C=C/C=C/C=C1C (centres undefined)	< 0.005 µM	8.08 µM	2.55 µM	21.1 µM	0.838 µM	14.9 µM	–	–	< 0.005 µM	13.7 µM	< 0.005 µM	15.2 µM	3.52 µM	10.9 µM	< 0.005 µM	7.93 µM
O=C1NC(O)C(c2c[nH]c3ccccc23)=C1c1c[nH]c2ccccc12 (centres undefined)	15.7 µM	> 25 µM	> 25 µM	> 25 µM	> 25 µM	> 25 µM	> 25 µM	> 25 µM	–	–	> 23.7 µM	> 25 µM	> 25 µM	> 25 µM	> 25 µM	> 25 µM
CCn1c(CN2CCN(Cc3ccccc3)CC2)nc2cc(NC(=O)c3cccs3)ccc21	15.3 µM	42.6 µM	18.7 µM	75.4 µM	14.8 µM	28.9 µM	–	–	–	–	12.6 µM	39.1 µM	32.1 µM	> 100 µM	12.4 µM	30.6 µM
COc1ccc2c(=O)c3ccoc3n(CC=C(C)C)c2c1	–	> 100 µM	–	–	–	> 100 µM	–	> 100 µM	–	> 100 µM	–	> 100 µM	–	> 100 µM	–	> 100 µM
CC(C)[C@H](CO)Nc1nc(Nc2ccc(C(=O)NCCNS(=O)(=O)c3cccc4c(N(C)C)cccc34)c(Cl)c2)c2ncn(C(C)C)c2n1	9.78 µM	> 100 µM	5.74 µM	> 100 µM	2.43 µM	> 44.2 µM	3.01 µM	> 100 µM	–	–	1.87 µM	> 24.9 µM	4.41 µM	> 100 µM	1.75 µM	> 100 µM
O=C1CCCCCCCC/C=C\CC(c2ccco2)O1 (centres undefined)	21.5 µM	39.9 µM	23.9 µM	82.4 µM	51.5 µM	> 100 µM	36 µM	> 100 µM	26.7 µM	75.7 µM	–	–	44.8 µM	> 100 µM	21.2 µM	61.8 µM
COc1ccc(-n2nnnc2-c2c[nH]c3c(F)cc(F)cc23)cc1	54 µM	> 100 µM	> 100 µM	> 100 µM	> 100 µM	> 100 µM	> 100 µM	> 100 µM	> 100 µM	> 100 µM	–	–	> 100 µM	> 100 µM	24.3 µM	76.9 µM
Cc1ccccc1N=Nc1ccc(NC(=O)c2ccnn2C)c(C)c1	11.2 µM	> 100 µM	23.9 µM	> 100 µM	54.9 µM	> 100 µM	43.3 µM	> 100 µM	7.72 µM	> 100 µM	–	–	> 100 µM	> 100 µM	3.66 µM	33.5 µM
